Laboratory results from US8372808B2, “Suppression of glial fibrillary acidic protein” (Wisconsin Alumni Research Foundation, priority 2008, dated 2013).
Read-outs that look alike come from different tables or passages of the source.

Key:
[1] = tested on: 2.2 kb human GFAP promoter; test: hGFAP promoter luciferase activity assay in 172.9 cells (primary astrocytes from dual luciferase transgenic mice); assay type: cell-based; conditions: for % GFAP reductions, luciferace expression from hGFAP promoter: tertiary screen, 48 hr exposure, at the MTDcc; for suppression in the promoter assay: secondary screen, 10 μM, 48 hours
Method: Cell-based assays were performed as four different screens using enriched cortical primary astrocyte cultures developed from transgenic mice expressing both firefly and Renilla luciferase reporter genes were generated. Briefly, the'firefly luciferase was placed under the control of a 2.2 kb human GFAP promoter to monitor GFAP transcription, and the Renilla luciferase was placed under the control of a 0.5 kb human GAPDH (glyceraldehyde 3-phosphate dehydrogenase) promoter to monitor transcription of a housekeeping gene for signal normalization. See section B, below for more detail regarding the development of transgenic mouse strains. Cells used in the following examples (e.g., the cortical primary astrocyte cells termed “172.9 cells,” described below) were developed from the transgenic mice described in section B.
Briefly, the cortices from individual pups were freed of meninges and placed into DMEM (Gibco) without serum, mechanically disassociated into single cells, suspended in medium containing DMEM supplemented with 10% fetal bovine serum (FBS; Hyclone), 100 U/ml penicillin, 100 μg/ml streptomycin (Gibco), seeded into T25 flasks (one brain per flask), and maintained in a humidified 5% CO2 atmosphere at 37° C. […] Medium was changed every 3 days. At 14-16 days in vitro (DIV), the flasks were shaken overnight at 200 rpm to remove oligodendrocytes and microglia. […] The cells were then suspended in DMEM with 10% FBS and plated (“passage 2”) on either 35 mm dishes, […], or 96-well plates (Corning) as needed. Cells were grown for varying days in vitro (DIV) at passage 2 and then used for various experiments. Tissue culture dishes and plates were pre-coated with 100 μg/ml poly-L-lysine for 1 h in a humidified 5% CO2 atmosphere at 37° C., and then allowed to air dry. […] Cell density was measured with the Vi-CELL cell counter (Beckman Coulter) or hemocytometer by the trypan-blue exclusion method. For simplicity, cells are referred to as “172.9 cells.”
Briefly, 172.9 cells were plated on poly-L coated white 96-well plates at a density of 5000 cells per well, in 100 μl DMEM with 10% FBS. At twenty-four hours, cells were exposed to the different compounds at a final concentration of 10 μM (diluted from a 50 mM stock) prepared in new medium (DMEM with 10% FBS). […] After exposure to compounds, luciferase activity in the primary and secondary screenings was determined by adding 30 μl of Bright-Glo™ reagent (Promega) to the 100 μl of media and cells of each well in the white 96-well plates with the Biomek® FX liquid handler (Beckman Coulter). After incubation for 1 minute at room temperature, signals were measured with the Safire 2 plate reader using Magellan™ software (Tecan). Other specific methods and equipment are known in the art and can be used to measure luciferase expression levels. This assay method is termed the “hGFAP promoter luciferase activity assay.” A reduction in luciferase expression as determined by this assay is termed “hGFAP promoter luciferase reduction.” For some assays that were aimed at confirming results of the initial screens, the same amount of Bright-Glo™ reagent was applied to each well in 96-well plates and signals were detected with the GloRunner™ Microplate Luminometer (Turner Biosystems) using the Dual-Glo® luciferase assay according to the manufacturer's recommendations (E1910, Promega).
In the secondary screen, cells were plated in a 96-well plate as described above for the primary screen.
Some compounds were unavailable outside of the library collections, and could not be further tested.
Each compound and concentration was analyzed in quadruplicate wells.
Compounds were tested at eight different concentrations ranging from 0-20 μM. In addition, GFAP protein levels were measured using a sandwich ELISA, which has greater sensitivity and is more accurate than the cell-based ELISA used in the primary screens.

172.9 cells = test: cell viability (CellTiter-Glo) / MTDcc in 172.9 cells
Method: Criterion for acceptable viability was >70% survival.
Cell viability was determined as follows. After exposure to each compound (duplicate wells per compound), 50 μl of CellTitier-Glo Luminescent Cell Viability Assay reagent (G7571, Promega) was added to the 100 μl of media present in each well, and the luminescent signal (reflecting intracellular ATP level) was detected with either a Victor 3-V plate reader (Perkin Elmer) or GloRunner Microplate Luminometer (Turner Biosystems). Cell viability was expressed as a percent of non-treated control cells.
A dose-response curve was created for each compound (0.1, 0.5, 1, 5, 10, 15, 20 μM) using 48 hr exposures. The MTDcc (“maximum tolerated dose—cell culture”) indicates the highest concentration that retained at least 70% cell viability. Each compound and concentration was analyzed in quadruplicate wells. EGCDG: epigallocatechin 3,5-digallate; NPPB: 5-nitro-2-phenylproplyaminobenzoic acid. As used herein, MTDcc refers to the MTD as determined by this assay under the above conditions.

mGFAP protein = test: cell-based GFAP protein level assay (cell-based ELISA) in 172.9 cells; set-up: species or system mouse; conditions: for % GFAP reductions, mGFAP protein via ELISA: tertiary screen, 48 hr exposure, at the MTDcc; for suppression in the protein assay: secondary screen, 10 μM, 48 hours
[2] = tertiary screen, 48 hr exposure, 0.1-20 μM, highest concentration that retained at least 70% cell viability

Row | Compound | % GFAP reductions, luciferace expression from hGFAP promoter [1] [%] | MTDcc (172.9 cells; mouse, 48 h) [µM] | % GFAP reductions, mGFAP protein via ELISA (mGFAP protein) [%] | MTDcc (172.9 cells; [2]) [µM] | suppression in the promoter assay [1] | suppression in the protein assay (mGFAP protein) | MTDcc (172.9 cells) [µM]
1 | C[C@]12CC[C@@H]3c4ccc(OC(=O)c5ccccc5)cc4CC[C@H]3[C@@H]1CC[C@@H]2O [estradiol benzoate] | 26 | >20 | −2.8 |  |  |  | 
2 | OCCN1CCN(CCCN2c3ccccc3Sc3ccc(C(F)(F)F)cc32)CC1 [fluphenazine] | 23 | 7.5 | −6.7 |  |  |  | 
3 | methylnorlichexanthone | 10 |  | 0.6 | >20 |  |  | 
4 | CSc1ccc2c(c1)N(CCC1CCCCN1C)c1ccccc1S2 (stereo not drawn) [thioridazine] | 37 | 5 | 17.7 |  |  |  | 
5 | CCCCC(CC)CN1CN(CC(CC)CCCC)CC(C)(N)C1 (stereo not drawn) [hexetidine] | 26 | >20 | 6.4 |  |  |  | 
6 | CCCCCCCCCCCC1=C(O)C(=O)C=C(O)C1=O [embelin] | 37 | 7.5 | 10.8 |  |  |  | 
7 | CC(=O)Nc1ccc(OC(=O)c2ccccc2O)cc1 [4-acetamidophenyl salicylate] | 17 | >20 | 8.6 |  |  |  | 
8 | CN(C)CC/C=C1/c2ccccc2Sc2ccc(Cl)cc21 [chlorprothixene] | 60 | 17.5 | −3.6 |  |  |  | 
9 | CCOC(=O)NC1=C(N2CC2)C(=O)C(NC(=O)OCC)=C(N2CC2)C1=O [diaziquone] | 86 | >20 | 9.5 |  | significant suppression | significant suppression | 
10 | CC(=O)OCC(=O)[C@@]12OC(C)(C)O[C@@H]1C[C@H]1[C@@H]3C[C@H](F)C4=CC(=O)C=C[C@]4(C)[C@@]3(F)[C@@H](O)C[C@@]12C [fluccinonide] | 28 |  | −2.2 | >20 |  |  | 
11 | O=C1CCCN1CC#CCN1CCCC1 [oxotremorine] | 16 |  | 2.7 | >20 |  |  | 
12 | CCOC(=O)C1=C(COCCN)NC(C)=C(C(=O)OC)C1c1ccccc1Cl (stereo not drawn) [amlodipine besylate] |  |  |  |  | significant suppression | significant suppression | 
13 | NC[C@H]1O[C@H](O[C@H]2[C@H](O)[C@@H](O)[C@H](N)C[C@@H]2N)[C@H](N)[C@@H](O)[C@@H]1O [neamine] | 5 |  | −0.8 | >20 |  |  | 
14 | O=C(O)c1cc([N+](=O)[O-])ccc1NCCCc1ccccc1 [5-nitro-2-phenylproplyaminobenzoic acid] | 16 |  | 0.4 | >20 |  |  | 
15 | CCC(=O)O[C@]1(C(=O)CCl)[C@@H](C)C[C@H]2[C@@H]3CCC4=CC(=O)C=C[C@]4(C)[C@@]3(F)[C@@H](O)C[C@@]21C [clobetasol propionate] | 25 | >20 | −7.6 |  |  |  | 
16 | CN(C)/N=N/c1[nH]cnc1C(N)=O [decarbazine] | 7 | >20 | 2.4 |  |  |  | 
17 | Cc1cc(O)c2c(c1)C(=O)c1cccc(O)c1C2=O [chrysophanol] | 66 |  | 18.6 | 12.5 |  |  | 
18 | CCOP(=S)(OCC)Oc1ccc2c(C)c(Cl)c(=O)oc2c1 [coumophos] | 10 |  | 0.4 |  |  |  | >20
19 | C=C(C)[C@@H]1CC[C@]2(C(=O)O)CC[C@]3(C)[C@H](CC[C@@H]4[C@@]5(C)CC[C@H](O)C(C)(C)[C@@H]5CC[C@]43C)[C@@H]12 [betulinic acid] | 13 | >20 | 6.3 |  |  |  | 
20 | CC(C)(CO)[C@@H](O)C(=O)NCCC(=O)O [pantothenic acid] | 6 | >20 | −3.5 |  |  |  | 
21 | CCOC(=O)C1=C(COCCN)NC(C)=C(C(=O)OC)C1c1ccccc1Cl (stereo not drawn) [amlodipine] | 44 |  |  | 12.5 |  |  | 
22 | CC(NCCc1ccc(O)cc1)C(O)c1ccc(O)cc1 (stereo not drawn) [ritodrine] | 16 | >20 | 5.2 |  |  |  | 
23 | COc1ccc2c(c1)O[C@@H]1COc3cc(OC)c(OC)cc3[C@@H]1C2=O [mundoserone] | 50 | >20 | 1.6 |  | significant suppression | significant suppression | 
24 | Cc1nc2sccn2c(=O)c1CCN1CCC(=C(c2ccc(F)cc2)c2ccc(F)cc2)CC1 [ritanserin] | 29 | 12.5 | 9.6 |  |  |  | 
25 | CC1(C)C(=O)C=C[C@]2(C)[C@H]3CC[C@@]4(C)[C@H](c5ccoc5)OC(=O)[C@H]5O[C@]54[C@]3(C)C=C[C@@H]12 [7-desacetoxy-6,7-dehydrogedunin] |  |  |  |  | significant suppression | significant suppression | 
26 | CC(C)(C)c1ccc(C(O)CCCN2CCC(C(O)(c3ccccc3)c3ccccc3)CC2)cc1 (stereo not drawn) [terfenadine] | 14 | 2.5 |  |  |  |  | 
